pIC50: −log10 of the molar value. Like-named read-outs stand apart in the source and are kept apart here.
Tests used:
[1] = tested on: metabolically active cells; assay: Cell viability luminescence assay; format: cell-based; conditions: 24 hours incubation
Procedure: Compound toxicity was measured in a luminescence assay that gives a signal proportional to the amount of metabolically active cells in the sample; the assay was performed as described by the supplier. All synthesized compounds were tested in the viability assay, and viability was registered at 24 hours and 72 hours.

[2] = Aqueous solubility of free bases and various salts by dissolution at room temperature; format: physicochemical; conditions: water, thermodynamic from solid
Procedure: The aqueous solubility of various amine compounds and their corresponding salts were determined by dissolution of various amounts of the respective compounds at room temperature.

[3] = tested on: PLB-Ser^16 phosphorylation; assay: PLB-Ser16 phosphorylation in isoproterenol-stimulated rat neonatal cardiomyocytes (western blot); format: cell-based; conditions: for Effect on PLB phosphorylation in cardiomyocytes / effect on PLB phosphorylation: rat neonatal cardiomyocytes; for Effect on PLB phosphorylation in cardiomyocytes: compounds 24 hours prior isoproterenol (100 nM, 5 minutes); for effect on PLB phosphorylation: Example 53; for pIC50: Rattus norvegicus, Cardiomyocyte, read-out: half-maximal effect, inhibition of phospholamban phosphorylation
Procedure: FIG. 7: Disruption of the AKAP18δ-PLB complex influences PLB-Ser^16 phosphorylation. Rat neonatal cardiomyocytes treated with compounds 24 hours prior stimulation with isoproterenol (100 nM, 5 minutes).
(§1) FIG. 9: Disruption of the AKAP18δ-PLB complex influences PLB-Ser^16 phosphorylation. Rat neonatal cardiomyocytes treated with compound 2g (A) or 3d (C) 24 hours prior stimulation with isoproterenol (100 nM, 5 minutes). Rat adult cardiomyocytes treated with compound 2g (B) 1 hour prior to stimulation with isoproterenol (10 nM, 5 minutes). The histograms show levels of phosphorylated Ser^16-PLB quantified by densitometry on Western blots (relative to actin levels).
Based on data from studies in cardiomyocytes assay using a peptide that blocks AKAP18δ-PLB interaction, it was expected that effective compounds would also cause disruption of the AKAP18δ-PLB complex and decrease PLB-Ser^16 phosphorylation (Lygren et al. in EMBO Reports, volume 8, issue 11, page 1061-1067 (2007). A small selection of hits from the derivatized compounds were tested in this cell-based assay, performed as described in Lygren et al.
Briefly, compounds were added to primary cultures of rat neonatal cardiomyocytes were added compounds about 24 hour prior stimulation with isoproterenol, and amount of phosphorylated Ser^16-PLB was analyzed by western blotting using a pSer^16-PLB phosphospecific antibody. Actin was used as a loading control.
Rat neonatal cardiomyocytes treated with compounds 24 hours prior stimulation with isoproterenol (100 nM, 5 minutes).

[4] = tested on: PLB-Ser^16 phosphorylation; assay: PLB-Ser16 phosphorylation in isoproterenol-stimulated rat adult cardiomyocytes; format: cell-based; conditions: Cardiomyocyte, 1 hour prior isoproterenol (10 nM, 5 minutes), read-out: half-maximal effect, inhibition of phospholamban phosphorylation
Procedure: as §1
Following on Example 53, two compounds, 2g and 3d (FIGS. 9A.B and 9C, respectively), were tested in more detail for their ability to interfere with phosphorylation of phospholamban after stimulation of neonatal (FIGS. 9A and 9C) or adult (FIG. 9B) primary cultures of cardiomyocytes.

SERCA2 = SERCA2 (Rattus norvegicus (Rat), UniProt P11507); assay: Patch clamp based SERCA2 activity assay in intact adult rat cardiomyocytes; conditions: 10 uM mesylate salt, cell dialysis in the presence of cAMP, preliminary data
Procedure: FIG. 10: Compound 2g regulates SERCA2-activity. A novel patch clamp based technique was performed to directly assess SERCA-activity independently of receptor stimulation in intact cardiomyocytes. By dialyzing cardiomyocytes with a fixed level of cAMP with and without presence of compound 2g, preliminary data indicates ability of compound 2g to regulate SERCA2-activity in intact adult cardiomyocytes.
Adult rat cardiomyocytes were isolated and perfused with external solution (NaCl-125, CsCl 20, D-glucose 5, MgCl2 1, CaCl2 1.8, Hepes 10, 4-aminopyridine 5, probenecid 2, pH 7.4 by NaOH). […] Whole-cell Ca fluorescence measured from voltage-clamped cells was performed with Cairn Research Optoscan Monochromator (Excitation 488 nm, emission 515 nm long pass) (Cain Research Ltd., Faverham, UK). By applying 100 ms square voltage step from −45 to 0 mV at 0.125 Hz by an Axoclamp 2B amplifier (Axon Instruments, Foster City, Calif., USA), basal Ca transients were recorded, and tau values were obtained by monoexponential fitting of the Ca^2+ extrusion phase from regular transients (τ) and caffeine transients (τcaff) after rapid applications of 10 mM caffeine. SERCA2 rate constant were calculated as: k_SERCA=1/τ−1/τcaff.

[5] = Aqueous solubility of tribenzylamine and salts quantified by HPLC (AUC); format: physicochemical; conditions: HPLC area under curve
Procedure: Tribenzylamine and the corresponding salts were dissolved in water and the solubility was quantified (area under curve (AUC)) by HPLC
Solubility of Tribenzylamine and its Corresponding HCl and Mesylate Salts, Tested on HPLC.

[6] = HCl salt, read-out: Solubility HCl salt
[7] = free base, read-out: Solubility free base
[8] = mesylate salt, read-out: Solubility Mesylate salt
[9] = 24 hours prior isoproterenol (100 nM, 5 minutes)

Row | solubility [2, 6] [µg/mL] | solubility [2, 7] [µg/mL] | solubility [2, 8] [µg/mL] | SMILES | Viability (100 μM) 24 hours [1] | further results
1 |  |  |  | COC(=O)c1ccc(CN(Cc2ccccc2)Cc2ccc(F)cc2)cc1 [Compound 3e, methyl 4-((benzyl(4-fluorobenzyl)amino)methyl)benzoate] | 0.57 | 
2 |  |  |  | CC(C)(C)c1ccc(CN(Cc2ccncc2)Cc2ccc(F)cc2)cc1 [Compound 3a, N-(4-(tert-butyl)benzyl)-N-(4-fluorobenzyl)-1-(pyridin-4-yl)methanamine] | 0.79 | 
3 |  |  |  | COC(=O)c1ccc(CN(Cc2ccccc2)Cc2ccc(C(=O)OC)cc2)cc1 [Compound 2f, dimethyl 4,4′-((benzylazanediyl)bis(methylene))dibenzoate] | 0.92 | 
4 |  |  |  | Oc1ccc(O)c(CN(Cc2ccncc2)Cc2cc(O)ccc2O)c1 [Compound 2b, 2,2′-(((pyridin-4-ylmethyl)azanediyl)bis(methylene))bis(benzene-1,4-diol)] | 0.10 | Effect on PLB phosphorylation in cardiomyocytes [3]: −
5 | < 500 | < 500 | < 500 | O=C(Nc1ccccc1)Nc1ccc(CN(Cc2ccccc2)Cc2ccc(NC(=O)Nc3ccccc3)cc2)cc1 [Compound 27, 1,1′-(((benzylazanediyl)bis(methylene))bis(4,1-phenylene))bis(3-phenylurea)] |  | 
6 |  |  |  | Fc1ccc(CN(Cc2ccccc2)Cc2ccc(-c3ccccc3-c3nn[nH]n3)cc2)cc1 [Compound 3g, 1-(2′-(2H-tetrazol-5-yl)-[1,1′-biphenyl]-4-yl)-N-benzyl-N-(4-fluorobenzyl)methanamine] | 0.80 | 
7 |  |  |  | Fc1ccc(CN(Cc2ccc(F)cc2)Cc2nccs2)cc1 [Compound 2c, N,N-bis(4-fluorobenzyl)-1-(thiazol-2-yl)methanamine] | 1.11 | 
8 | < 50 | < 50 | < 50 | O=C(O)c1ccc(CN(Cc2ccccc2)Cc2ccc(C(=O)O)cc2)cc1 [Compound 18] |  | 
9 |  |  |  | Oc1ccc(O)c(CN(Cc2ccncc2)Cc2ccc(F)cc2)c1 [Compound 3b, 2-(((4-fluorobenzyl)(pyridin-4-ylmethyl)amino)methyl)benzene-1,4-diol] | 0.03 | 
10 |  |  |  | O=C(O)c1ccc(CN(Cc2ccccc2)Cc2ccc(F)cc2)cc1 [Compound 3f, 4-((benzyl(4-fluorobenzyl)amino)methyl)benzoic acid] | 0.98 | effect on PLB phosphorylation [3, 9]: did not appear to have an effect; Effect on PLB phosphorylation in cardiomyocytes [3]: +
11 | 15000 | < 50 | > 34000 | CCN(CC)c1ccc(CN(Cc2ccccc2)Cc2ccc(N(CC)CC)cc2)cc1 [Compound 23, 4-((benzyl(4-(diethylamino)benzyl)amino)methyl)-N,N-diethylaniline] |  | 
12 | < 50 | < 50 | < 50 | Cc1ccc(NC(=O)Nc2ccc(CN(Cc3ccccc3)Cc3ccc(NC(=O)Nc4ccc(C)cc4)cc3)cc2)cc1 [Compound 25, 1,1′-(((benzylazanediyl)bis(methylene))bis(4,1-phenylene))bis(3-(p-tolyl)urea)] |  | 
13 |  |  |  | CN(C)c1ccc(CN(Cc2ccccc2)Cc2ccc(N(C)C)cc2)cc1 [Compound 2g, 4-((benzyl(4-(dimethylamino)benzyl)amino)methyl)-N,N-dimethylaniline] | 0.56 | pIC50 [3]: ~4.40; effect on PLB phosphorylation [3, 9]: concentration dependent inhibition of PLB-phosphorylation; Effect on PLB phosphorylation in cardiomyocytes [3]: ++; pIC50 [4]: ~4.00; SERCA2 activity (SERCA2): increased SERCA2 activity
14 |  |  |  | CC(c1ccccc1)N(Cc1ccc(N(C)C)cc1)Cc1ccc(N(C)C)cc1 (stereo not shown) [Compound 2h, 4-(((4-(dimethylamino)benzyl)(1-phenylethyl)amino)methyl)-N,N-dimethylaniline] | 0.91 | 
15 |  |  |  | COc1ccc(CN(Cc2ccc(OC)cc2)Cc2nccs2)cc1 [Compound 2d, N,N-bis(4-methoxybenzyl)-1-(thiazol-2-yl)methanamine] | 1.15 | 
16 |  |  |  | Fc1ccc(CN(Cc2ccncc2)Cc2ccc(F)cc2)cc1 [Compound 2a, N,N-bis(4-fluorobenzyl)-1-(pyridin-4-yl)methanamine] | 0.85 | 
17 | < 1500 | < 1500 | < 1500 | O=C(Nc1ccc(F)cc1)Nc1ccc(CN(Cc2ccccc2)Cc2ccc(NC(=O)Nc3ccc(F)cc3)cc2)cc1 [Compound 26, 1,1′-(((benzylazanediyl)bis(methylene))bis(4,1-phenylene))bis(3-(4-fluorophenyl)urea)] |  | 
18 |  |  |  | CN(C)c1ccc(CN(Cc2ccccc2)Cc2ccc3c(c2)CCO3)cc1 [Compound 3d] | 0.58 | pIC50 ([3]; neonatal cardiomyocytes, 24 hours prior isoproterenol (100 nM, 5 minutes)): ~4.00; effect on PLB phosphorylation [3, 9]: did not appear to have an effect; Effect on PLB phosphorylation in cardiomyocytes [3]: −
19 | < 50 | < 50 | < 50 | CC(C)(C)c1ccc(CN(Cc2ccccc2)Cc2ccc(C(C)(C)C)cc2)cc1 [Compound 19, N-benzyl-N-(4-(tert-butyl)benzyl)-1-(4-(tert-butyl)phenyl)methanamine] |  | 
20 | < 3000 | < 3000 | < 3000 | O=[N+]([O-])c1ccc(CN(Cc2ccccc2)Cc2ccc([N+](=O)[O-])cc2)cc1 [Compound 20, N-benzyl-N-(4-nitrobenzyl)-1-(4-nitrophenyl)methanamine] |  | 
21 |  |  |  | COc1ccc(CN(Cc2ccccc2)Cc2ccc(OC)cc2)cc1 [Compound 2e, N-benzyl-N-(4-methoxybenzyl)-1-(4-methoxyphenyl)methanamine] | 1.01 | 
22 | 4500 | < 50 | > 22000 | Nc1ccc(CN(Cc2ccccc2)Cc2ccc(N)cc2)cc1 [Compound 22, 4-(((4-aminobenzyl)(benzyl)amino)methyl)aniline] |  | 
23 | < 360 | < 360 | < 360 | COC(=O)c1ccc(CN(Cc2ccccc2)Cc2ccc(C(=O)OC)cc2)cc1 [Compound 17, dimethyl 4,4′-((benzylazanediyl)bis(methylene))dibenzoate] |  | 
24 |  |  |  | CN(C)c1ccc(CN(Cc2ccccc2)CC(c2ccccc2)c2ccccc2)cc1 [Compound 3c, 4-((benzyl(2,2-diphenylethyl)amino)methyl)-N,N-dimethylaniline] | 0.74 | effect on PLB phosphorylation [3, 9]: somewhat weaker than that of 2g; Effect on PLB phosphorylation in cardiomyocytes [3]: +
25 |  |  |  | c1ccc(CN(Cc2ccccc2)Cc2ccccc2)cc1 [Tribenzylamine] |  | AUC HCl salt ([5]; HCl salt dissolved in water): 406 mAu*s; AUC Free base ([5]; free base dissolved in water): ≈0 mAu*s; AUC Mesylate salt ([5]; mesylate salt dissolved in water): 1975 mAu*s

Row | SMILES | solubility [2, 6] [µg/mL] | solubility [2, 7] [µg/mL] | solubility [2, 8] [µg/mL] | Viability (100 μM) 24 hours [1] | further results
26 | CN(C)c1ccc(CN(Cc2ccccc2)Cc2ccc(N(C)C)cc2)cc1 [Compound 29, 4-((benzyl(4-(dimethylamino)benzyl)amino)methyl)-N,N-dimethylaniline] | 6000 | < 160 | 94000 |  | 
